Molecules are shown by their SMILES.

This passage reports IC50 results from BindingDB's records for doi:10.1021/acschembio.6b00217 (Broad Institute, 2016).

Sequence of Serine/threonine-protein kinase SIK2 (Q9H0K1 whole entry): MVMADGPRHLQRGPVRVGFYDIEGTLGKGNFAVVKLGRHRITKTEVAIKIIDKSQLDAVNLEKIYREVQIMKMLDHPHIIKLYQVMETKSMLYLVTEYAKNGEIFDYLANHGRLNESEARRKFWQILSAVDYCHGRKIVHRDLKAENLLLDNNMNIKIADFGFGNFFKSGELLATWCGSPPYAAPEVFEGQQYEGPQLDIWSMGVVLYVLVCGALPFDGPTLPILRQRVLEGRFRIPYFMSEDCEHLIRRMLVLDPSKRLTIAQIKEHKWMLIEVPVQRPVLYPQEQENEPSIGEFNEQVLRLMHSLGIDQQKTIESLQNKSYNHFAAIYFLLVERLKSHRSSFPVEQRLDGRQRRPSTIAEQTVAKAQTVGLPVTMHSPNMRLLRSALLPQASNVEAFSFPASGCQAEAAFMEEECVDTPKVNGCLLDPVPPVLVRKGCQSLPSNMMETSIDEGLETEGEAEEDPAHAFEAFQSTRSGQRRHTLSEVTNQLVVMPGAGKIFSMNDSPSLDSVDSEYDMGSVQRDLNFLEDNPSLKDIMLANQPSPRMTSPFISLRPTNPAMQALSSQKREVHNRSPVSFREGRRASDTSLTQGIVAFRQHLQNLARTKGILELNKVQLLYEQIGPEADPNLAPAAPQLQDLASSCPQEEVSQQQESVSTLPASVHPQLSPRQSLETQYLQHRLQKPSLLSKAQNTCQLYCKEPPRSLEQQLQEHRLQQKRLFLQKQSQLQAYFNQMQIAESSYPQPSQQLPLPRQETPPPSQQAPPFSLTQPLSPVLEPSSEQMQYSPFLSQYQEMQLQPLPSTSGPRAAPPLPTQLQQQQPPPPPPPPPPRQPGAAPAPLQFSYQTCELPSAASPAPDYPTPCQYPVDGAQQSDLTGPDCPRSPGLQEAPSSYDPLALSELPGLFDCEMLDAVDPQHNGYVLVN

For this assay, the target named is Serine/threonine-protein kinase SIK2 (Homo sapiens, UniProt Q9H0K1). The experiment in a line: Caliper-based Mobility Shift Assay. To be noted: pH 8. As to the method:
IC50‘s for HG-9-91-01 derivatives were measured by Caliper-based mobility shift assay (PerkinElmer). […] Reactions were quenched by adding 20 mM EDTA (pH 8) after 1 hr, and percentage of substrate conversion was measured by LabChip EZ Reader II (PerkinElmer).
By IC50 is commonly meant the concentration that gives 50% inhibition. With `COc1ccc(N2C(=O)N(c3c(C)cccc3Cl)Cc3cnc(Nc4ccc(N5CCN(C)CC5)cc4)nc32)nc1` [YKL-05-095 (3)], the IC50 turned out to be 0.006 µM.
Next, `CCOc1cc(C2CCN(C)CC2)ccc1Nc1ncc2c(n1)N(c1ccc(OC)cn1)C(=O)N(c1c(C)cccc1Cl)C2` [HG-9-91-01 derivative, 6]: 0.15 µM; `COc1ccc(N2C(=O)N(c3c(C)cccc3C)Cc3cnc(Nc4ccc(C5CCN(C)CC5)cc4OC(C)C)nc32)nc1` [HG-9-91-01 derivative, 7]: above 7 µM.
Take `COc1ccc(N2C(=O)N(c3c(C)cccc3Cl)Cc3cnc(Nc4ccc(N5CCN(C)CC5)cc4OC)nc32)nc1` [YKL-05-096 (4)]: the IC50 worked out at 0.034 µM.
